Data as given in the supplement of paper PMC10307832.

Legend:
Assay in all cases: relative viability (nuclei count vs DMSO), 5 days (fraction); higher = more cells survive
ABC-1 = system: ABC-1
In short: (§1)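 Relative viability is defined as nuclei in treated wells over nuclei in vehicle wells. Duplicate plates were run and medians reported. Lung cancer cell lines in 1536-well plates were dosed by pin tool one day after seeding, with one drug or with a fixed anchor-drug dose plus five library-drug doses (not always all listed) in √10 steps, and nuclei were counted after 5 days.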

COR-L23 = system: COR-L23
In short: as §1

ChaGo-K-1 = system: ChaGo-K-1
In short: as §1

EMC-BAC-2 = system: EMC-BAC-2
In short: as §1

HARA = system: HARA
In short: as §1

HCC-15 = system: HCC-15
In short: as §1

HCC-366 = system: HCC-366
In short: as §1

HCC-78 = system: HCC-78
In short: as §1

HOP-62 = system: HOP-62
In short: as §1

LC-2-ad = system: LC-2-ad
In short: as §1

NCI-H1395 = system: NCI-H1395
In short: as §1

NCI-H1793 = system: NCI-H1793
In short: as §1

NCI-H1944 = system: NCI-H1944
In short: as §1

NCI-H1993 = system: NCI-H1993
In short: as §1

NCI-H2023 = system: NCI-H2023
In short: as §1

NCI-H2126 = system: NCI-H2126
In short: as §1

NCI-H2228 = system: NCI-H2228
In short: as §1

NCI-H23 = system: NCI-H23
In short: as §1

NCI-H2405 = system: NCI-H2405
In short: as §1

NCI-H358 = system: NCI-H358
In short: as §1

NCI-H838 = system: NCI-H838
In short: as §1

SK-LU-1 = system: SK-LU-1
In short: as §1

Compound: O=c1cc(-c2cccc3c2Sc2ccccc2S3)oc(N2CCOCC2)c1 + CS(=O)(=O)N1CCN(Cc2cc3nc(-c4cccc5[nH]ncc45)nc(N4CCOCC4)c3s2)CC1 [Pictilisib] (partner 1 µM)
- relative viability (ABC-1; first compound 0.08 µM): 0.62
- relative viability (ABC-1; first compound 0.253 µM): 0.739
- relative viability (ABC-1; first compound 0.8 µM): 0.607
- relative viability (ABC-1; first compound 2.53 µM): 0.666
- relative viability (ABC-1; first compound 8 µM): 0.71
- relative viability (COR-L23; first compound 0.08 µM): 0.92
- relative viability (COR-L23; first compound 0.253 µM): 1.36
- relative viability (COR-L23; first compound 0.8 µM): 0.934
- relative viability (COR-L23; first compound 2.53 µM): 0.705
- relative viability (COR-L23; first compound 8 µM): 1.06
- relative viability (ChaGo-K-1; first compound 0.08 µM): 0.649
- relative viability (ChaGo-K-1; first compound 0.253 µM): 0.624
- relative viability (ChaGo-K-1; first compound 0.8 µM): 0.777
- relative viability (ChaGo-K-1; first compound 8 µM): 1.12
- relative viability (EMC-BAC-2; first compound 0.08 µM): 0.535
- relative viability (EMC-BAC-2; first compound 0.253 µM): 0.582
- relative viability (EMC-BAC-2; first compound 0.8 µM): 0.58
- relative viability (EMC-BAC-2; first compound 2.53 µM): 0.548
- relative viability (EMC-BAC-2; first compound 8 µM): 0.538
- relative viability (HARA; first compound 0.08 µM): 0.368
- relative viability (HARA; first compound 0.253 µM): 0.378
- relative viability (HARA; first compound 0.8 µM): 0.419
- relative viability (HARA; first compound 2.53 µM): 0.384
- relative viability (HARA; first compound 8 µM): 0.627
- relative viability (HCC-15; first compound 0.08 µM): 0.732
- relative viability (HCC-15; first compound 0.253 µM): 0.858
- relative viability (HCC-15; first compound 0.8 µM): 0.797
- relative viability (HCC-15; first compound 2.53 µM): 0.674
- relative viability (HCC-15; first compound 8 µM): 0.793
- relative viability (HCC-366; first compound 0.08 µM): 0.138
- relative viability (HCC-366; first compound 0.253 µM): 0.129
- relative viability (HCC-366; first compound 0.8 µM): 0.114
- relative viability (HCC-366; first compound 2.53 µM): 0.122
- relative viability (HCC-366; first compound 8 µM): 0.158
- relative viability (HCC-78; first compound 0.08 µM): 0.182
- relative viability (HCC-78; first compound 0.253 µM): 0.199
- relative viability (HCC-78; first compound 0.8 µM): 0.207
- relative viability (HCC-78; first compound 2.53 µM): 0.196
- relative viability (HCC-78; first compound 8 µM): 0.255
- relative viability (HOP-62; first compound 0.08 µM): 0.782
- relative viability (HOP-62; first compound 0.253 µM): 1.02
- relative viability (HOP-62; first compound 0.8 µM): 0.89
- relative viability (HOP-62; first compound 2.53 µM): 0.831
- relative viability (HOP-62; first compound 8 µM): 0.779
- relative viability (LC-2-ad; first compound 0.08 µM): 0.472
- relative viability (LC-2-ad; first compound 0.253 µM): 0.545
- relative viability (LC-2-ad; first compound 0.8 µM): 0.465
- relative viability (LC-2-ad; first compound 2.53 µM): 0.432
- relative viability (LC-2-ad; first compound 8 µM): 0.425
- relative viability (NCI-H1395; first compound 0.08 µM): 0.634
- relative viability (NCI-H1395; first compound 0.253 µM): 0.602
- relative viability (NCI-H1395; first compound 0.8 µM): 0.534
- relative viability (NCI-H1395; first compound 2.53 µM): 0.579
- relative viability (NCI-H1395; first compound 8 µM): 1.05
- relative viability (NCI-H1793; first compound 0.08 µM): 0.185
- relative viability (NCI-H1793; first compound 0.253 µM): 0.301
- relative viability (NCI-H1793; first compound 0.8 µM): 0.303
- relative viability (NCI-H1793; first compound 2.53 µM): 0.303
- relative viability (NCI-H1793; first compound 8 µM): 0.334
- relative viability (NCI-H1944; first compound 0.08 µM): 0.324
- relative viability (NCI-H1944; first compound 0.253 µM): 0.352
- relative viability (NCI-H1944; first compound 0.8 µM): 0.29
- relative viability (NCI-H1944; first compound 8 µM): 0.346
- relative viability (NCI-H1993; first compound 0.08 µM): 0.942
- relative viability (NCI-H1993; first compound 0.253 µM): 0.759
- relative viability (NCI-H1993; first compound 0.8 µM): 0.894
- relative viability (NCI-H1993; first compound 2.53 µM): 0.846
- relative viability (NCI-H1993; first compound 8 µM): 0.805
- relative viability (NCI-H2023; first compound 0.08 µM): 0.213
- relative viability (NCI-H2023; first compound 0.253 µM): 0.294
- relative viability (NCI-H2023; first compound 0.8 µM): 0.244
- relative viability (NCI-H2023; first compound 2.53 µM): 0.218
- relative viability (NCI-H2023; first compound 8 µM): 0.218
- relative viability (NCI-H2126; first compound 0.08 µM): 0.454
- relative viability (NCI-H2126; first compound 0.253 µM): 0.509
- relative viability (NCI-H2126; first compound 0.8 µM): 0.412
- relative viability (NCI-H2126; first compound 2.53 µM): 0.452
- relative viability (NCI-H2126; first compound 8 µM): 0.56
- relative viability (NCI-H2228; first compound 0.08 µM): 0.434
- relative viability (NCI-H2228; first compound 0.253 µM): 0.424
- relative viability (NCI-H2228; first compound 0.8 µM): 0.296
- relative viability (NCI-H2228; first compound 2.53 µM): 0.484
- relative viability (NCI-H2228; first compound 8 µM): 0.378
- relative viability (NCI-H23; first compound 0.08 µM): 0.559
- relative viability (NCI-H23; first compound 0.253 µM): 0.523
- relative viability (NCI-H23; first compound 0.8 µM): 0.47
- relative viability (NCI-H23; first compound 2.53 µM): 0.4
- relative viability (NCI-H23; first compound 8 µM): 0.457
- relative viability (NCI-H2405; first compound 0.08 µM): 0.454
- relative viability (NCI-H2405; first compound 0.253 µM): 0.386
- relative viability (NCI-H2405; first compound 0.8 µM): 0.333
- relative viability (NCI-H2405; first compound 2.53 µM): 0.491
- relative viability (NCI-H2405; first compound 8 µM): 0.492
- relative viability (NCI-H358; first compound 0.08 µM): 0.311
- relative viability (NCI-H358; first compound 0.253 µM): 0.328
- relative viability (NCI-H358; first compound 0.8 µM): 0.351
- relative viability (NCI-H358; first compound 2.53 µM): 0.269
- relative viability (NCI-H358; first compound 8 µM): 0.33
- relative viability (NCI-H838; first compound 0.08 µM): 0.415
- relative viability (NCI-H838; first compound 0.253 µM): 0.643
- relative viability (NCI-H838; first compound 0.8 µM): 0.372
- relative viability (NCI-H838; first compound 2.53 µM): 0.426
- relative viability (NCI-H838; first compound 8 µM): 0.408
- relative viability (SK-LU-1; first compound 0.08 µM): 0.616
- relative viability (SK-LU-1; first compound 0.253 µM): 0.515
- relative viability (SK-LU-1; first compound 0.8 µM): 0.594
- relative viability (SK-LU-1; first compound 2.53 µM): 0.541
- relative viability (SK-LU-1; first compound 8 µM): 0.596
